In patent US7384734B2, “Compositions and methods for determining the susceptibility of a pathogenic virus to protease inhibitors” (Monogram Biosciences, Inc., priority 2002, dated 2008):

Test system: HIV-1 from patient plasma samples
Test: PHENOSENSE HIV phenotypic drug susceptibility assay (fold change in IC50 versus NL4-3 reference strain)
Format: cell-based
Excerpt: A “fold change” is a numeric comparison of the drug susceptibility of a patient virus and a drug-sensitive reference virus. It is the ratio of the Patient IC50 to the drug-sensitive reference IC50, i.e., Patient IC50/Reference IC50=Fold Change (“FC”). […] A fold change less than 1 indicates the patient virus is more sensitive than the drug-sensitive reference virus. […] A fold change less than the clinical cutoff value means the patient virus is sensitive to that drug.
In one embodiment, the phenotypic analysis is performed using PHENOSENSE™ (ViroLogic Inc., South San Francisco, Calif.). See Petropoulos et al., 2000, Antimicrob. Agents Chemother. 44:920-928; U.S. Pat. Nos. 5,837,464 and 6,242,187. PHENOSENSE™ is a phenotypic assay that achieves the benefits of phenotypic testing and overcomes the drawbacks of previous assays.
A resistance test vector (“RTV”) can then be constructed by incorporating the amplified viral gene sequences into a replication defective viral vector by using any method known in the art of incorporating gene sequences into a vector. In one embodiment, restrictions enzymes and conventional cloning methods are used. See Maniatis et al., 1989, Molecular Cloning: A Laboratory Manual, Cold Spring Harbor Laboratory, N.Y. and Ausubel et al., 1989, Current Protocols in Molecular Biology, Greene Publishing Associates and Wiley Interscience, N.Y. In some embodiments, ApaI and PinAI restriction enzymes are used. Preferably, the replication defective viral vector is the indicator gene viral vector (“IGVV”). In some embodiments, the viral vector contains a means for detecting replication of the RTV. Preferably, the viral vector contains a luciferase expression cassette.
The assay can be performed by first co-transfecting host cells with RTV DNA and a plasmid that expresses the envelope proteins of another retrovirus, for example, amphotropic murine leukemia virus (MLV). Following transfection, virus particles can be harvested and used to infect fresh target cells. The completion of a single round of viral replication can be detected by the means for detecting replication contained in the vector. In one embodiment, the completion of a single round of viral replication results in the production of luciferase. Serial concentrations of anti-viral agents can be added at either the transfection step or the infection step.
Susceptibility to the anti-viral agent can be measured by comparing the replication of the vector in the presence and absence of the anti-viral agent. For example, susceptibility to the anti-viral agent can be measured by comparing the luciferase activity in the presence and absence of the anti-viral agent. Susceptible viruses would produce low levels of luciferase activity in the presence of anti-viral agents, whereas viruses with reduced susceptibility would produce higher levels of luciferase activity.
The phenotypic assay was conducted using the PHENOSENSE™ (Virologic, South San Francisco, Calif.) HIV assay (Petropoulos et al., 2000, Antimicrob. Agents Chemother. 44:920-928; U.S. Pat. Nos. 5,837,464 and 6,242,187). Plasma samples were collected from HIV-1-infected patients. Repeat samples from the same patient were removed to prevent possible bias resulting from unique combinations of mutations.
The genotype data was obtained by sequencing the protease of the HIV-1 present in each patient's sample and determining the sequence changes with respect to the sequence of the NL4-3 (GenBank Accession No. AF324493) HIV. The amino sequence for the NL4-3 protease is provided in SEQ. ID. No. 1 (FIG. 12A) and the nucleic acid sequence for the NL4-3 protease gene is provided in SEQ. ID. No. 2 (FIG. 12B).

[1] = genotype group: 32, 46, 47, 54, n=4
[2] = genotype group: 32, 47, 54, 84, n=5
[3] = genotype group: 32, 47, 54, n=17
[4] = genotype group: 46 (M46I or L), 54, n=16
[5] = genotype group: 46, 54, 84, n=29
[6] = genotype group: 47, 54, 84, n=3
[7] = genotype group: 54 (I54L or M only), n=9
[8] = genotype group: not containing any tested mutation, n=1096
[9] = genotype group: protease mutation 32, n=26
[10] = genotype group: wild-type (all primary positions), n=623

| Compound | median FC in each group (each group carrying APV resistance mutations (Table 9)) | Median FC (genotype group: 32, 46, 47, 54, 84, n=6) | Median FC [1] | Median FC [2] | Median FC [3] | Median FC (genotype group: 32, 47, n=23) | Median FC (genotype group: 32, 84, n=3) | Median FC [4] | Median FC [5] | Median FC [6] | Median FC (genotype group: 47, 54, n=3) | Median FC (genotype group: 47, 84, n=4) | Median FC (genotype group: 47, n=8) | Median FC (genotype group: 50, n=42) | Median FC [7] | Median FC (genotype group: 54, 84, n=22) | Median FC (genotype group: 84, n=247) | Median FC [8] | Median FC [9] | Median FC [10] |
| --- | --- | --- | --- | --- | --- | --- | --- | --- | --- | --- | --- | --- | --- | --- | --- | --- | --- | --- | --- | --- |
| CC(C)CN(C[C@@H](O)[C@H](Cc1ccccc1)NC(=O)O[C@H]1CCOC1)S(=O)(=O)c1ccc(N)cc1 [APV, amprenavir] | ≥ 9.5 fold | 130 | 130 | 130 | 40 | 12 | 51 | 84 | 47 | 24 | 42 | 12 | 26 | 20 | 22 | 67 | 11 | 1.6 | 9.5 | 0.6 |
| Cc1cccc(C)c1OCC(=O)N[C@@H](Cc1ccccc1)[C@@H](O)C[C@H](Cc1ccccc1)NC(=O)[C@H](C(C)C)N1CCCNC1=O [LPV, lopinavir] |  |  | 208 | 227 | 146 | 7.5 | 124 | 138 | 30 | 20 | 88 | 28 |  | 54 | 160 | 93 | 7.1 | 2.1 | 12 | 0.6 |
